Experimental data reported in ChEMBL document CHEMBL5344422, “Syrosingopine Enhances 20S Proteasome Activity and Degradation of α-Synuclein” (J Nat Prod, 2024).
Calls of active or inactive are those of the source. The calls are words filed in the database; no cut-off is given here. Peptide text beside a SMILES is read from it. * marks the point of attachment. Cbz = O=C(OCc1ccccc1)*

Experiments:
[1] = target: T1, 20S proteasome (Homo sapiens) (UniProt P49721+P20618+P28074+P28062+P28065+P28072+P25786+P25787+P25788+P25789+P28066+P60900+O14818+Q8TAA3+P40306+A5LHX3+P49720+P28070+Q99436); experiment: Activation of human 20S proteasome chymotrypsin-like hydrolysis activity assessed as measuring fold increase in protein activity using SucLLVY-MCA as a fluorogenic substrate at 20 uM incubated for 1 hrs by fluorescence based assay relative to DMSO; type: protein-complex assay
[2] = target: T1, 20S proteasome (Homo sapiens); experiment: Activation of human 20S proteasome chymotrypsin-like hydrolysis activity assessed as measuring fold increase in protein activity using SucLLVY-MCA as a fluorogenic substrate at 10 uM incubated for 20 mins by fluorescence based assay relative to DMSO; type: protein-complex assay; conditions: filed as activator
[3] = target: T1, 20S proteasome (Homo sapiens); experiment: Activation of human 20S proteasome chymotrypsin-like hydrolysis activity assessed as concentration to doubling the protein activity using SucLLVY-MCA as a fluorogenic substrate measured after 1 hr by fluorescence based assay; type: protein-complex assay; conditions: filed as activator
[4] = target: T1, 20S proteasome (Homo sapiens); experiment: Activation of human 20S proteasome trypsin-like hydrolysis activity assessed as concentration to doubling the protein activity using […] as a fluorogenic substrate measured after 1 hr by fluorescence based assay; type: protein-complex assay; conditions: filed as activator
[5] = target: T1, 20S proteasome (Homo sapiens); experiment: Activation of human 20S proteasome caspase-like hydrolysis activity assessed as concentration to doubling the protein activity using […] as a fluorogenic substrate measured after 1 hr by fluorescence based assay; type: protein-complex assay; conditions: filed as activator
[6] = target: T1, 20S proteasome (Homo sapiens); experiment: Activation of human 20S proteasome mediated chymotrypsin-like proteolytic activity assessed as maximal fold increase in protein activity using SucLLVY-MCA as a fluorogenic substrate incubated for 1 hr by fluorescence based assay; type: protein-complex assay; conditions: filed as activator
[7] = target: T1, 20S proteasome (Homo sapiens); experiment: Activation of human 20S proteasome mediated trypsin-like proteolytic activity assessed as maximal fold increase in protein activity using […] as a fluorogenic substrate incubated for 1 hr by fluorescence based assay; type: protein-complex assay; conditions: filed as activator
[8] = target: T1, 20S proteasome (Homo sapiens); experiment: Activation of human 20S proteasome mediated caspase-like proteolytic activity assessed as maximal fold increase in protein activity using […] as a fluorogenic substrate incubated for 1 hr by fluorescence based assay; type: protein-complex assay; conditions: filed as activator
[9] = target: 26S proteasome (Homo sapiens) (UniProt Q99460+P49721+P20618+P28074+P28062+P28065+P28072+O00487+P25786+P25787+P25788+P25789+P28066+P60900+O14818+Q8TAA3+P40306+A5LHX3+P49720+P28070+Q99436+Q16186+P35998+P62191+P43686+P62333+P17980+P62195+Q13200+O43242+O00232+O00231+Q15008+P51665+Q9UNM6+P55036+P48556+P60896); experiment: Activation of human 26S proteasome mediated proteolytic hydrolysis activity using SucLLVY-AMC as a flurogenic substrate measured every minute for 1 hrs by fluorescence based assay; type: protein-complex assay
[10] = target: T1, 20S proteasome (Homo sapiens); experiment: Activation of human 20S proteasome assessed as alpha-synuclein degradation in presence of MG132 incubated for 20 mins by Western blot analysis; type: protein-complex assay
[11] = target: T1, 20S proteasome (Homo sapiens); experiment: Activation of 20S proteasome in human HeLa cells assessed as gate opening by measuring increase in membrane-permeable fluorescent probe signal pretreated for 20 hrs followed by treated with Me4BodipyFL-Ahx3Lue3VS probe for 2 hrs by flow cytometry relative to DMSO; type: cell-based; conditions: filed as activator, time 22.0 hrs
[12] = target: T1, 20S proteasome (Homo sapiens); experiment: Activation of human 20S proteasome assessed as alpha-synuclein degradation incubated for 20 mins by Western blot analysis; type: protein-complex assay; conditions: filed as activator
[13] = target: T1, 20S proteasome (Homo sapiens); experiment: Activation of human 20S proteasome chymotrypsin-like hydrolysis activity assessed as measuring fold increase in protein activity using SucLLVY-MCA as a fluorogenic substrate at 20 uM incubated for 20 mins by fluorescence based assay relative to DMSO; type: protein-complex assay; conditions: filed as activator

## CCOC(=O)Oc1c(OC)cc(C(=O)O[C@@H]2C[C@@H]3CN4CCc5c([nH]c6cc(OC)ccc56)[C@H]4C[C@@H]3[C@H](C(=O)OC)[C@H]2OC)cc1OC
[1]; filed as activator
  fold change (FC): 13
[2]
  fold change (FC): 12.5
[3]
  CD: 1 µM
[4]
  CD: 0.96 µM
[5]
  CD: 0.38 µM
[6]
  fold change (FC): 9.8
[7]
  fold change (FC): 8
[8]
  fold change (FC): 9.4
[9]
  Activity: inactive
[10]; filed as activator
  Activity: Active
[11]
  Activity: 2.84
[12]
  Activity: Active

## Cc1cc2c(C(C)C)c(O)c(O)c(C=O)c2c(O)c1-c1c(C)cc2c(C(C)C)c(O)c(O)c(C=O)c2c1O
[1]; filed as activator
  fold change (FC): 4

## Cc1cc2nc3c(=O)[nH]c(=O)nc-3n(C[C@H](O)[C@H](O)[C@H](O)CO)c2cc1C
[1]; filed as activator
  fold change (FC): 4.5

## C[C@H]1[C@H](C)CC[C@]2(C(=O)O)CC[C@]3(C)C(=CC[C@@H]4[C@@]5(C)CC[C@H](O)C(C)(C)[C@@H]5CC[C@]43C)[C@H]12
[1]; filed as activator
  fold change (FC): 6.5

## O=C(O)[C@@H]1[C@H]2C[C@H]3c4[nH]c5ccccc5c4CCN3C[C@@H]2CC[C@@H]1O
[1]
  fold change (FC): < 3
[2]
  fold change (FC): 2.17

## CC(C)[C@@]1(NC(=O)[C@@H]2C[C@@H]3c4cccc5[nH]cc(c45)C[C@H]3N(C)C2)O[C@@]2(O)[C@@H]3CCCN3C(=O)[C@H](Cc3ccccc3)N2C1=O
[1]; filed as activator
  fold change (FC): 8

## RAUWOLFIA SERPENTINA
[1]
  fold change (FC): < 3
[2]
  fold change (FC): 1.05

## CC(C)C[C@H]1C(=O)N2CCC[C@H]2[C@]2(O)O[C@](NC(=O)[C@@H]3C=C4c5cccc6[nH]c(Br)c(c56)C[C@H]4N(C)C3)(C(C)C)C(=O)N12
[1]; filed as activator
  fold change (FC): 6.7

## COc1ccc2c3c([nH]c2c1)[C@H]1C[C@H]2[C@H](C[C@@H](O)[C@H](OC)[C@H]2C(=O)O)CN1CC3
[1]
  fold change (FC): < 3
[2]
  fold change (FC): 2.73

## CC(C)=CCC/C(C)=C/CC/C(C)=C/CC/C(C)=C/CC1=C(C)C(=O)c2ccccc2C1=O
[1]; filed as activator
  fold change (FC): 4.5

## CC(C)[C@H]1C(=O)N2CCC[C@H]2[C@]2(O)O[C@](NC(=O)[C@@H]3C[C@@H]4c5cccc6[nH]cc(c56)C[C@H]4N(C)C3)(C(C)C)C(=O)N12
[1]; filed as activator
  fold change (FC): 4.3

## CC(C)C[C@H]1C(=O)N2CCC[C@H]2[C@]2(O)O[C@](NC(=O)[C@@H]3C=C4c5cccc6[nH]cc(c56)C[C@H]4N(C)C3)(C(C)C)C(=O)N12
[1]; filed as activator
  fold change (FC): 8.9

## CN1C[C@H](C(=O)N[C@]2(C)O[C@@]3(O)[C@@H]4CCCN4C(=O)[C@H](Cc4ccccc4)N3C2=O)C=C2c3cccc4[nH]cc(c34)C[C@H]21
[1]; filed as activator
  fold change (FC): 7.2

## CN(C)CCCN1c2ccccc2Sc2ccc(Cl)cc21
[13]
  fold change (FC): 4.09
[11]
  Activity: 1.29

## COC(=O)[C@@H]1[C@H]2C[C@H]3c4[nH]c5ccccc5c4CCN3C[C@@H]2CC[C@@H]1O
[1]
  fold change (FC): < 3
[2]
  fold change (FC): 0.82

## COC(=O)[C@H]1[C@H]2C[C@H]3c4[nH]c5ccccc5c4CCN3C[C@H]2CC[C@@H]1O
[1]
  fold change (FC): < 3
[2]
  fold change (FC): 1.32

## COc1cc(/C=C/C(=O)CC(=O)/C=C/c2ccc(O)c(OC)c2)ccc1O
[1]; filed as activator
  fold change (FC): 5.4

## COC(=O)[C@H]1/C(=N/O)CC[C@H]2CN3CCc4c([nH]c5ccccc45)[C@@H]3C[C@@H]21
[1]
  fold change (FC): < 3
[2]
  fold change (FC): 1.49

## CC(C)C[C@@H](C=O)NC(=O)[C@H](CC(C)C)NC(=O)[C@H](CC(C)C)NC(=O)OCc1ccccc1 (Cbz-Leu-Leu-Leu-aldehyde)
[11]
  Activity: 0.11

## COC(=O)[C@H]1[C@H]2C[C@H]3c4[nH]c5ccccc5c4CCN3C[C@@H]2CC[C@@H]1O
[1]
  fold change (FC): < 3
[2]
  fold change (FC): 0.99

## COC(=O)[C@H]1[C@H]2C[C@@H]3c4[nH]c5cc(OC)ccc5c4CCN3C[C@H]2C[C@@H](OC(=O)c2cc(OC)c(OC)c(OC)c2)[C@@H]1OC
[1]; filed as activator
  fold change (FC): 7.9
[2]
  fold change (FC): 7.91
[3]
  CD: 1.6 µM
[4]
  CD: 1.3 µM
[5]
  CD: 0.53 µM
[6]
  fold change (FC): 4.8
[7]
  fold change (FC): 7
[8]
  fold change (FC): 7
[9]
  Activity: inactive
[10]
  Activity: inactive
[12]
  Activity: Active
